# Laboratory results reported in patent US12018021B2 (UCB Biopharma SRL, priority 2018, dated 2024).
# Structures can show the parent of a compound that is named as a salt.
# Target: IgE-Tb / FcεRIα-Y131A-AF488 (Homo sapiens, UniProt P01854)
# Assay: IgE-Tb / FcεRIα-Y131A-AF488 FRET assay (protocol for examples 1 to 233)
# Format: binding
# Conditions: examples 1 to 233: 5 nM IgE-Tb, 25 nM FcεRIα-Y131A-AF488, incubated 2 hours at room temperature; read-out: Y131A FRET IC50 range
# Protocol: For examples 1 to 233, the assay was conducted according to the following: Each assay reaction was conducted in a volume of 25 μl in a 384-well half-volume plate. 10 point compound serial dilutions (3-fold) were generated in DMSO at a concentration of ×50 that of the final assay concentration (FAC). Compound solutions were then prepared by IgE-Tb diluting 10-fold in assay buffer. For the assay, 5 μl of diluted compound was added to 10 μl of, followed by addition of 10 μl FcεRIα-Y131A-AF488. FRET reagents FACs were 5 nM IgE-Tb, 25 nM FcεRIα-Y131A-AF488. Usually the top FAC of compound in the assay was 10 μM. The final DMSO concentration was 2%. The minimum signal (MIN) was measured by adding 5l unlabelled FcεRIα at 1 μM (FAC=200 nM) to the FRET reagents. The maximum FRET signal (MAX) was measured in wells containing FRET reagents but no compound. The assay was incubated for 2 hours at room temperature, protected from light and evaporation, and with gentle agitation.
# Measurement of FRET for each well was carried out by exciting at 330 nm and measuring emission at 495/520 nm using an Envision plate reader (Perkin Elmer). FRET ratio was calculated as follows: Emission at 520/Emission at 495×1000.
# The FRET ratio was used for the data analysis.
# Z′ was calculated as follows (σ=standard deviation and μ=mean): 1−((3×σMAX)+(3×σMIN))/(μMAX−μMIN)
# Z′ above 0.5 was considered a good assay.
# Background signal (MIN) was subtracted from all wells. Using the background subtracted values, the percent inhibition by compound in each test-well was calculated as follows: 100−Test-well FRET ratio/MAX FRET ratio×100.
# Percent inhibition was plotted against compound concentration. IC50 values for each compound were determined using four parameter logistic fit model using the XLFIT5 software package.
# IgE-Tb / FcεRIα-Y131A-AF488, sequence (P01854 1-427 limits assumed, stated change not applied): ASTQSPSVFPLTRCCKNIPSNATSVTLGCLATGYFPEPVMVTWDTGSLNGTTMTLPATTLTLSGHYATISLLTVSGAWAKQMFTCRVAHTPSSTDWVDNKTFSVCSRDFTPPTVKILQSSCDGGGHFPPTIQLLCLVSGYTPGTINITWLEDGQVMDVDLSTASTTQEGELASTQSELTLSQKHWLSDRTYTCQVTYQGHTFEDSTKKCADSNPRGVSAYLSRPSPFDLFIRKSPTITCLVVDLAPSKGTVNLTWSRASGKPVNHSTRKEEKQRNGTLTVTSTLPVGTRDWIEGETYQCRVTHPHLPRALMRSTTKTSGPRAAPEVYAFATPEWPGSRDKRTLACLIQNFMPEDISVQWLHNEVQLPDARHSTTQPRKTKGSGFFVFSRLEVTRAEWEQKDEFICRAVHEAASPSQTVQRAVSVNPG
row,SMILES,IC50 [µM]
1,"CNC(=O)c1c(NC(=O)C2CC2C)sc2c1CCCC2 (mixture of isomers) [Example 102, N-Methyl-2-[(2-methylcyclopropanecarbonyl)amino]-4,5,6,7-tetrahydrobenzothiophene-3-carboxamide]",10 to 50
2,"C[S+]([O-])NC1CCc2sc(NC(=O)C3CC3)c(C(=O)NCC3CC3)c2C1 (mixture of isomers) [Example 199, 2-(Cyclopropanecarbonylamino)-N-(cyclopropylmethyl)-5-(methanesulfinamido)-4,5,6,7-tetrahydrobenzothiophene-3-carboxamide]",1 to 10
3,"C[C@@H]1CCc2sc(NC(=O)C3CC3)c(C(=O)NCC3CC3)c21 (single isomer, unassigned) [Example 13]",1 to 10
4,"C[C@H]1CCc2sc(NC(=O)C3CC3)c(C(=O)NCC3CC3)c21 (single isomer, unassigned) [Example 14]",10 to 50
5,"CC1CC1C(=O)Nc1sc2c(c1C(=O)NCC1CC1)CCCC2 (single isomer, unassigned) [Example 90, N-(cyclopropylmethyl)-2-[(2-methylcyclopropanecarbonyl)amino]-4,5,6,7-tetrahydrobenzothiophene-3-carboxamide]",1 to 10
6,"O=C(Nc1sc2c(c1C(=O)N1CCC3(CC3)C1)CC(n1cnnc1Nc1cccnc1)CC2)C1CC1 (single isomer, unassigned) [Example 128]",< 1
7,"O=C(Nc1sc2c(c1C(=O)N1CCC3(CC3)C1)CC(n1cnnc1Nc1cccnc1)CC2)C1CC1 (single isomer, unassigned) [Example 129]",1 to 10
8,"CCc1c(N[C@@H]2CCc3sc(NC(=O)C4CC4)c(C(=O)NCC4CC4)c3C2)c(=O)c1=O (single isomer, unassigned) [Example 189]",< 1
9,"CCc1c(N[C@H]2CCc3sc(NC(=O)C4CC4)c(C(=O)NCC4CC4)c3C2)c(=O)c1=O (single isomer, unassigned) [Example 190]",< 1
10,"CC(C)(C)CNc1nncn1C1CCc2sc(NC(=O)C3CC3)c(C(=O)NCC3CC3)c2C1 (stereo in doubt) [Example 105, (5S)-2-(Cyclopropanecarbonylamino)-N-(cyclopropylmethyl)-5-[3-(2,2-dimethylpropylamino)-1,2,4-triazol-4-yl]-4,5,6,7-tetrahydrobenzothiophene-3-carboxamide]",< 1
11,"CC(C)CNc1nncn1C1CCc2sc(NC(=O)C3CC3)c(C(=O)NCC3CC3)c2C1 (stereo in doubt) [Example 111, (5S)-2-(Cyclopropanecarbonylamino)-N-(cyclopropylmethyl)-5-[3-(isobutylamino)-1,2,4-triazol-4-yl]-4,5,6,7-tetrahydrobenzothiophene-3-carboxamide]",< 1
12,"Cc1cncc(Nc2nncn2C2CCc3sc(NC(=O)C4CC4)c(C(=O)NCC4CC4)c3C2)c1 (stereo in doubt) [Example 114, (5S)-2-(cyclopropanecarbonylamino)-N-(cyclopropylmethyl)-5-[3-[(5-methyl-3-pyridyl)amino]-1,2,4-triazol-4-yl]-4,5,6,7-tetrahydrobenzothiophene-3-carboxamide]",< 1
13,"O=C(NCC1CC1)c1c(NC(=O)C2CC2)sc2c1CC(n1cnnc1NCCN1CCOCC1)CC2 (stereo in doubt) [Example 118, (5S)-2-(Cyclopropanecarbonylamino)-N-(cyclopropylmethyl)-5-[3-(2-morpholinoethylamino)-1,2,4-triazol-4-yl]-4,5,6,7-tetrahydrobenzothiophene-3-carboxamide]",< 1
14,"CC(C)(C)OC(=O)Nc1cnnn1[C@H]1CCc2sc(NC(=O)C3CC3)c(C(=O)NCC3CC3)c2C1 (stereo in doubt) [Example 140, tert-Butyl N-[3-[2-(cyclopropanecarbonylamino)-3-(cyclopropylmethylcarbamoyl)-4,5,6,7-tetrahydrobenzothiophen-5-yl]triazol-4-yl]carbamate]",< 1
15,"Cc1cnc(Nc2nncn2C2CCc3sc(NC(=O)C4CC4)c(C(=O)NCC4CC4)c3C2)c(C)n1 (stereo in doubt) [Example 178, (5S)-2-(Cyclopropanecarbonylamino)-N-(cyclopropylmethyl)-5-[3-[(3,5-dimethylpyrazin-2-yl)amino]-1,2,4-triazol-4-yl]-4,5,6,7-tetrahydrobenzothiophene-3-carboxamide]",< 1
16,"CNC(=O)c1c(NC(=O)C2CC2)sc2c1CCSC2 [Example 1, 2-(Cyclopropanecarbonylamino)-N-methyl-5,7-dihydro-4H-thieno[2,3-c]thiopyran-3-carboxamide]",1 to 10

row,SMILES,IC50 [µM]
1,"CNC(=O)c1c(NC(=O)C2CC2)sc2c1CCCO2 [Example 2, 6-(Cyclopropanecarbonylamino)-N-methyl-3,4-dihydro-2H-thieno[2,3-b]pyran-5-carboxamide]",10 to 50
2,"O=C(NCC1CC1)c1c(NC(=O)C2CC2)sc2c1CNCC2 [Example 3, 2-(Cyclopropanecarbonylamino)-N-(cyclopropylmethyl)-4,5,6,7-tetrahydrothieno[3,2-c]pyridine-3-carboxamide; hydrochloride]",10 to 50
3,"CS(=O)(=O)N1CCc2sc(NC(=O)C3CC3)c(C(=O)NCC3CC3)c2C1 [Example 4, 2-(Cyclopropanecarbonylamino)-N-(cyclopropylmethyl)-5-methylsulfonyl-6,7-dihydro-4H-thieno[3,2-c]pyridine-3-carboxamide]",10 to 50
4,"CC(=O)N1CCc2sc(NC(=O)C3CC3)c(C(=O)NCC3CC3)c2C1 [Example 5, 5-Acetyl-2-(cyclopropanecarbonylamino)-N-(cyclopropylmethyl)-6,7-dihydro-4H-thieno[3,2-c]pyridine-3-carboxamide]",10 to 50
5,"CS(=O)(=O)N1CCCc2c1sc(NC(=O)C1CC1)c2C(=O)NCC1CC1 [Example 6, 2-(Cyclopropanecarbonylamino)-N-(cyclopropylmethyl)-7-methylsulfonyl-5,6-dihydro-4H-thieno[2,3-b]pyridine-3-carboxamide]",1 to 10
6,"CC(=O)N1CCCc2c1sc(NC(=O)C1CC1)c2C(=O)NCC1CC1 [Example 7, 7-Acetyl-2-(cyclopropanecarbonylamino)-N-(cyclopropylmethyl)-5,6-dihydro-4H-thieno[2,3-b]pyridine-3-carboxamide]",10 to 50
7,"COCC(=O)N1CCc2sc(NC(=O)C3CC3)c(C(=O)NCC3CC3)c2C1 [Example 8, 2-(Cyclopropanecarbonylamino)-N-(cyclopropylmethyl)-5-(2-methoxyacetyl)-6,7-dihydro-4H-thieno[3,2-c]pyridine-3-carboxamide]",10 to 50
8,"O=C(NCC1CC1)c1c(NC(=O)C2CC2)sc2c1CN(C(=O)Cc1ccccc1)CC2 [Example 9, 2-(Cyclopropanecarbonylamino)-N-(cyclopropylmethyl)-5-(2-phenylacetyl)-6,7-dihydro-4H-thieno[3,2-c]pyridine-3-carboxamide]",10 to 50
9,"CC(C)(C)OC(=O)NCCN1CCc2sc(NC(=O)C3CC3)c(C(=O)NCC3CC3)c2C1 [Example 10, Tert-butyl N-[2-[2-(cyclopropanecarbonylamino)-3-(cyclopropylmethylcarbamoyl)-6,7-dihydro-4H-thieno[3,2-c]pyridin-5-yl]ethyl]carbamate]",10 to 50
10,"O=C(NCC1CC1)c1c(NC(=O)C2CC2)sc2c1CN(CCc1ccccc1)CC2 [Example 11, 2-(Cyclopropanecarbonylamino)-N-(cyclopropylmethyl)-5-(2-phenylethyl)-6,7-dihydro-4H-thieno[3,2-c]pyridine-3-carboxamide]",10 to 50
11,"COC(=O)CN1CCc2sc(NC(=O)C3CC3)c(C(=O)NCC3CC3)c2C1 [Example 12, Methyl 2-[2-(cyclopropanecarbonylamino)-3-(cyclopropylmethylcarbamoyl)-6,7-dihydro-4H-thieno[3,2-c]pyridin-5-yl]acetate]",10 to 50
12,"O=C(Nc1sc2c(c1S(=O)(=O)NCC1CC1)CCCC2)C1CC1 [Example 15, N-[3-(Cyclopropylmethylsulfamoyl)-4,5,6,7-tetrahydrobenzothiophen-2-yl]cyclopropanecarboxamide]",< 1
13,"CCCNS(=O)(=O)c1c(NC(=O)C2CC2)sc2c1CCCC2 [Example 16, N-[3-(Propylsulfamoyl)-4,5,6,7-tetrahydrobenzothiophen-2-yl]cyclopropanecarboxamide]",< 1
14,"CC(C)CNS(=O)(=O)c1c(NC(=O)C2CC2)sc2c1CCCC2 [Example 17, N-[3-(Isobutylsulfamoyl)-4,5,6,7-tetrahydrobenzothiophen-2-yl]cyclopropanecarboxamide]",< 1
15,"CC(C)(O)CNS(=O)(=O)c1c(NC(=O)C2CC2)sc2c1CCCC2 [Example 18, N-[3-[(2-Hydroxy-2-methyl-propyl)sulfamoyl]-4,5,6,7-tetrahydrobenzothiophen-2-yl]cyclopropanecarboxamide]",1 to 10
